This passage reports inhibition, Activity and IC50 results from ChEMBL document CHEMBL5252588, “Palladium-Catalyzed Synthesis, Acetylcholinesterase Inhibition, and Neuroprotective Activities of N-Aryl Galantamine Analogues” (J Nat Prod, 2023).

The target in data set [1] is Acetylcholinesterase (Electrophorus electricus) (UniProt O42275). Put plainly: Inhibition of electric eel AChE using acetylthiocholine iodide as substrate at 50 uM preincubated with compounds for 20 mins followed by substrate addition and measured after 20 mins by Ellman's method relative to control. The settings on record: time 40.0 min. A general note: Ellman's reagent forms a yellow product with free thiols.
Sequence of Acetylcholinesterase (Electrophorus electricus) (O42275 24-633 limits assumed): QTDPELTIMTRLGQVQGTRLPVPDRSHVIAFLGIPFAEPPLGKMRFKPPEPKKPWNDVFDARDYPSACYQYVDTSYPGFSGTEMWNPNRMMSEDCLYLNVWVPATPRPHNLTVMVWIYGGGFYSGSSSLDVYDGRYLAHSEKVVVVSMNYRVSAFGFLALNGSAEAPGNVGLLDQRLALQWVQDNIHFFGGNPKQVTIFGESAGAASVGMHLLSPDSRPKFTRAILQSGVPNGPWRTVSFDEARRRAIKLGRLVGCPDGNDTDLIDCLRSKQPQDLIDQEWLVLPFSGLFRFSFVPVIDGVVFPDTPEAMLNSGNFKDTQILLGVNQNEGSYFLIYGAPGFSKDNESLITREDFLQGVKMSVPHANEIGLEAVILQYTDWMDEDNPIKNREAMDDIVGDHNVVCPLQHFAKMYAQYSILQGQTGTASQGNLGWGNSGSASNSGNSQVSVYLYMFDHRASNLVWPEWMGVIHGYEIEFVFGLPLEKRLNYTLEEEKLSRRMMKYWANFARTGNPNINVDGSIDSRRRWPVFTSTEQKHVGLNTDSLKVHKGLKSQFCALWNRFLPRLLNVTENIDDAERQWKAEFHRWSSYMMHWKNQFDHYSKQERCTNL

Data set [2] has as its system SH-SY5Y. Put plainly: Neuroprotective activity against H2O2-induced injury in human SH-SY5Y cells assessed as […] in cell viability at 50 uM preincubated with compound for 24 hrs followed by H2O2-addition and measured after 4 hrs by MTT assay relative to control. In kind it is functional. The settings on record: time 28 hrs. (In general: Tetrazolium assays rely on reduction of a dye to a coloured formazan, in cell work by metabolically active cells.)

In data set [3] the target is Cholinesterase (Equus caballus) (UniProt P81908). Put plainly: Inhibition of equine serum BChE using butyrylthiocholine iodide as substrate at 50 to 100 uM preincubated for 20 mins followed by substrate addition and measured after 20 mins by Ellman's method. As to conditions: dose 50-100 µM, time 40.0 min.
Sequence of Cholinesterase (Equus caballus) (P81908 whole entry): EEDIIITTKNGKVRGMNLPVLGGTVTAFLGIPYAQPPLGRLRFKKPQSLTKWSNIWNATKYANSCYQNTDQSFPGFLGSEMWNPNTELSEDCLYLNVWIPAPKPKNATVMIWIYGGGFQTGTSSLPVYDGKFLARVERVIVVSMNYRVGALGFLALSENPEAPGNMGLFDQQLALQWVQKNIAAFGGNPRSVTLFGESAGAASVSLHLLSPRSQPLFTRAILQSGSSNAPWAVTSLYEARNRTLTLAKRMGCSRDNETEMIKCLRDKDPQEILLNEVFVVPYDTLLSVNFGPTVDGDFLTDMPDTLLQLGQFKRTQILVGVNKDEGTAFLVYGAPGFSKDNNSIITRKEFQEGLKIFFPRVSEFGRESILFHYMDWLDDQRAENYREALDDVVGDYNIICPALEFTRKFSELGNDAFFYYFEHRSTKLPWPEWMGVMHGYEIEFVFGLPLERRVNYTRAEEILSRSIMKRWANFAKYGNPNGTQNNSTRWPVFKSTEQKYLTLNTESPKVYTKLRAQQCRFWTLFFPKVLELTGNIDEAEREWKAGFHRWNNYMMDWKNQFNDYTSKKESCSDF
Data set [4] addresses Acetylcholinesterase (Electrophorus electricus, UniProt O42275). Put plainly: Inhibition of electric eel AChE using acetylthiocholine iodide as substrate preincubated with compounds for 20 mins followed by substrate addition and measured after 20 mins by Ellman's method relative to control.
Data set [5] deals with SH-SY5Y. As to the kind of experiment: Neuroprotective activity against H2O2-induced injury in human SH-SY5Y cells assessed as inhibition of H2O2-induced apoptosis at 50 uM preincubated with compound for 24 hrs followed by H2O2-addition and measured after 4 hrs by TUNEL staining based analysis. The format is functional, cell-based. As to conditions: time 28.0 hrs.
Data set [6] relates to SH-SY5Y. As to the kind of experiment: Neuroprotective activity against H2O2-induced injury in human SH-SY5Y cells assessed as decrease in cleaved caspase-3 at 50 uM preincubated with compound for 24 hrs followed by H2O2-addition and measured after 4 hrs by immunoblot analysis. As to conditions: time 28.0 hrs. In kind it is functional, cell-based.
Data set [7] deals with SH-SY5Y. Put plainly: Neuroprotective activity against H2O2-induced injury in human SH-SY5Y cells assessed as increase in Bcl-2 protein expression at 50 uM preincubated with compound for 24 hrs followed by H2O2-addition and measured after 4 hrs by immunoblot analysis. As to conditions: time 28.0 hrs. The format is functional, cell-based. A general note: Immunoblotting shows a protein as a band on a membrane.

Data set [8] deals with SH-SY5Y. Put plainly: Neuroprotective activity against H2O2-induced injury in human SH-SY5Y cells assessed as decrease in caspase-3 protein expression at 50 uM preincubated with compound for 24 hrs followed by H2O2-addition and measured after 4 hrs by immunoblot analysis. As to conditions: time 28.0 hrs. In kind it is functional, cell-based.
The target of data set [9] is Acetylcholinesterase (Electrophorus electricus) (UniProt O42275). Put plainly: Inhibition of electric eel AChE using acetylthiocholine iodide as substrate at 50 to 100 uM preincubated with compounds for 20 mins followed by substrate addition and measured after 20 mins by Ellman's method relative to control. The settings on record: dose 50-100 µM, time 40.0 min.
Data set [10] deals with SH-SY5Y. Put plainly: Cytotoxicity against human SH-SY5Y cells assessed as reduction in cell viability. The format is toxicity, cell-based.

pIC50: −log10 of the molar value. Active and inactive are the calls of the source. The rule behind the calls is not given here.

Sequence of Acetylcholinesterase (O42275 whole entry): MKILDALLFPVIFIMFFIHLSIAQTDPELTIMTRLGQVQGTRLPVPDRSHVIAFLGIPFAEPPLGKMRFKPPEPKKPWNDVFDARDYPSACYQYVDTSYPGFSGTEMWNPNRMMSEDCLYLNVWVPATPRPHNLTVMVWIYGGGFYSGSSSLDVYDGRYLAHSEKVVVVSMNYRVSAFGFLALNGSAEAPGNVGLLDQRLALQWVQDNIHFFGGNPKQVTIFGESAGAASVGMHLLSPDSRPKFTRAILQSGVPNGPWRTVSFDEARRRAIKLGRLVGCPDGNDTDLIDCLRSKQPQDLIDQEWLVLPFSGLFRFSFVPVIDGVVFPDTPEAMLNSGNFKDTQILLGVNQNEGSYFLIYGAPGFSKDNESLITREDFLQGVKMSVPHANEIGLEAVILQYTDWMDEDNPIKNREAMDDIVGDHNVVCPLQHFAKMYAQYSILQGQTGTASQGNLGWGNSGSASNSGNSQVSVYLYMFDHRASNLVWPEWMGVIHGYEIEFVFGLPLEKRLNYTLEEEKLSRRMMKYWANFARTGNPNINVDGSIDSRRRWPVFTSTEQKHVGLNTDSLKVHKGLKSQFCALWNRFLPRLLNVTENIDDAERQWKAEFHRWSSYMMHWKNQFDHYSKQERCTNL

In the case of `COc1ccc2c3c1O[C@H]1C[C@@H](O)C=C[C@@]31CCN(c1cccc(C)n1)C2`, in [1], the inhibition – broadly, the drop in the measured response relative to a control, in per cent – was greater than 50%. For the same compound, in [2], the Activity came out at 55%. In addition, in [3], the inhibition entry was “inactive”. Besides, the pIC50 (commonly the IC50 on a negative log10 scale, so that one unit is a factor of ten) in [4] is 4.77.
For `COc1ccc2c3c1O[C@H]1C[C@@H](O)C=C[C@@]31CCN(c1ccccn1)C2`, the inhibition in data set [1] is greater than 50%. Besides, the Activity in data set [2] is on record as 59%. Besides, the inhibition result in data set [3] is “inactive”. Besides, the pIC50 in data set [4] is 5.44.
As for `COc1ccnc(N2CC[C@@]34C=C[C@H](O)C[C@@H]3Oc3c(OC)ccc(c34)C2)c1`, the outcome in data set [5], in data set [6] and in data set [7] was Active. Further, in data set [1], the inhibition was greater than 50%. Also, in [8], the result was inactive. Further, the Activity in [2] worked out at 70%. Moreover, the inhibition result in data set [3] was “inactive”. The pIC50 in data set [4] is 6.72.
Regarding `COc1ccc2c3c1O[C@H]1C[C@@H](O)C=C[C@@]31CCN(C)C2` [GALANTAMINE], the Activity in data set [2] was 44%.
For `COc1ccc2c3c1O[C@H]1C[C@@H](O)C=C[C@@]31CCN(c1ccc(-c3ccccn3)cc1)C2`, the inhibition in data set [9] is less than 50%. Besides, the Activity entry in data set [10] is on record as “Toxic”; in [2] it was 38%. The inhibition result in data set [3] was “inactive”.
`COc1ccc2c3c1O[C@H]1C[C@@H](O)C=C[C@@]31CCN(c1ncccn1)C2`: in data set [2], the Activity came out at 60%. Further, in [3], the inhibition entry is “inactive”.
As for `COc1ccc2c3c1O[C@H]1C[C@@H](O)C=C[C@@]31CCN(c1ncccc1F)C2`, in [10], the Activity entry is “Toxic”. Moreover, the inhibition entry in [3] is “inactive”.
On to `COc1ccc2c3c1O[C@H]1C[C@@H](O)C=C[C@@]31CCN(c1ccc(C(C)(C)C)cc1)C2`, for which the inhibition in [9] is less than 50%. In addition, in data set [10], the Activity entry is reported as “Toxic”. In addition, in [3], the inhibition result is “inactive”.
Consider `COc1ccc2c3c1O[C@H]1C[C@@H](O)C=C[C@@]31CCN(c1ccc(C(F)(F)F)nc1)C2`, for which the Activity in [2] was determined as 63%. The inhibition result in data set [3] is “inactive”.
With `COc1ccc2c3c1O[C@H]1C[C@@H](O)C=C[C@@]31CCN(c1ccc3c(c1)OCO3)C2`, in [9], the inhibition is less than 50%. Besides, the Activity in data set [2] was determined as 39%. The inhibition entry in data set [3] was “inactive”.
Consider `COc1cccnc1N1CC[C@@]23C=C[C@H](O)C[C@@H]2Oc2c(OC)ccc(c23)C1`, for which the inhibition in data set [1] was greater than 50%. Also, the Activity in data set [2] is reported as 40%. Further, the inhibition result in data set [3] is “inactive”. The pIC50 in data set [4] is 4.57.
For the compound `COc1ccc2c3c1O[C@H]1C[C@@H](O)C=C[C@@]31CCN(c1ccc(C)cc1)C2`, the inhibition in data set [9] was less than 50%. The Activity entry in [10] is reported as “Toxic”. Also, the inhibition result in [3] is “inactive”.
With `COc1ccc2c3c1O[C@H]1C[C@@H](O)C=C[C@@]31CCN(c1ccc3ncccc3c1)C2`, in [9], the inhibition was less than 50%. In [2], the Activity worked out at 56%. Further, the inhibition result in [3] was “inactive”.
In the case of `COc1cccc(N2CC[C@@]34C=C[C@H](O)C[C@@H]3Oc3c(OC)ccc(c34)C2)n1`, the Activity in data set [2] is recorded as 66%. Moreover, in data set [3], the inhibition entry was “inactive”.
As to `COc1ccc2c3c1O[C@H]1C[C@@H](O)C=C[C@@]31CCN(c1ccc(F)cc1)C2`, the inhibition in [9] was less than 50%. Besides, the Activity in [2] amounted to 39%. Besides, in data set [3], the inhibition result is “inactive”.
The corresponding values for `COc1ccc2c3c1O[C@H]1C[C@@H](O)C=C[C@@]31CCN(c1cccc(C(F)(F)F)c1)C2` are less than 50%, 53% and “inactive”.
As to `CCOc1ccc(N2CC[C@@]34C=C[C@H](O)C[C@@H]3Oc3c(OC)ccc(c34)C2)nc1`, the Activity in [2] was found to be 41%. Also, in data set [3], the inhibition result was “inactive”.
Take `COc1ccc2c3c1O[C@H]1C[C@@H](O)C=C[C@@]31CCN(c1ccc(OC(C)C)nc1)C2`: the Activity in [2] came to 42%. For the same compound, in data set [3], the inhibition result was “inactive”.
As to `COc1ccc(N2CC[C@@]34C=C[C@H](O)C[C@@H]3Oc3c(OC)ccc(c34)C2)cc1`, the inhibition in data set [9] is less than 50%. Also, in data set [2], the Activity is 37%. Besides, the inhibition result in data set [3] is “inactive”.
With `COc1ccc2c3c1O[C@H]1C[C@@H](O)C=C[C@@]31CCN(c1cc(C)ccn1)C2`, in data set [2], the Activity worked out at 41%. Further, the inhibition result in data set [3] was “inactive”.
On to `CCCCc1ccc(N2CC[C@@]34C=C[C@H](O)C[C@@H]3Oc3c(OC)ccc(c34)C2)cc1`, for which the inhibition in data set [9] was less than 50%. For the same compound, the Activity result in data set [10] was “Toxic”. Also, the inhibition result in [3] is “inactive”.
Regarding `COc1cccc(N2CC[C@@]34C=C[C@H](O)C[C@@H]3Oc3c(OC)ccc(c34)C2)c1`, the inhibition in [9] was less than 50%. Also, the Activity in [2] worked out at 40%. The inhibition result in data set [3] was “inactive”.
Take `COc1ccc2c3c1O[C@H]1C[C@@H](O)C=C[C@@]31CCN(c1ncccc1C)C2`: in data set [1], the inhibition is greater than 50%. Moreover, in data set [2], the Activity came out at 37%. Further, the inhibition result in data set [3] is “inactive”. In addition, the pIC50 in [4] was 5.77.
In the case of `CCc1ccc(-c2ccc(N3CC[C@@]45C=C[C@H](O)C[C@@H]4Oc4c(OC)ccc(c45)C3)cc2)cc1`, in data set [9], the inhibition was less than 50%. Moreover, the Activity entry in data set [10] is listed as “Toxic”. Besides, the inhibition entry in data set [3] is “inactive”.
Take `COc1ccc2c3c1O[C@H]1C[C@@H](O)C=C[C@@]31CCN(c1cc(C(F)(F)F)cc(C(F)(F)F)c1)C2`: the inhibition in data set [9] was less than 50%. Further, the Activity result in data set [10] is given as “Toxic”. Moreover, the inhibition result in [3] is “inactive”.
